US20230227466A1, “SUBSTITUTED THIENOPYRIMIDINES THAT INTERACT WITH THE RAS SUPERFAMILY FOR THE TREATMENT OF CANCERS, INFLAMMATORY DISEASES, RASOPATHIES, AND FIBROTIC DISEASE” (SHY Therapeutics, LLC, priority 2020, published 2023)
Read-outs that look alike come from different tables or passages of the source.

Experiments:
[1] = test system: ERK1/2 phosphorylation in Panc-1 cells; test: Western ERK1/2 cell-based phosphorylation assay; design: species or system human; settings: at 10 μM, values in brackets < > are activation %, not inhibition
Procedure, shortened: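 Western blot with anti-phospho-p44/42 (Thr202/Tyr204) measured ERK1/2 phosphorylation after 15 min EGF (1.5 ng/ml) stimulation. Beforehand, serum-starved (0.5% FBS, overnight) Panc-1 cells received compounds for 6 h at 37 °C, at 10 μM final in 0.3% DMSO or as dilution series for IC50.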

[2] = test system: MIA-PaCa-2 pancreatic cancer cell line (KRAS G12C); test: Cell proliferation assay (CellTiter 96 Aqueous One); format: cell-based; settings: Homo sapiens; for inhibition at 10 µM: MIA PaCa-2, read-out: % inh cell proliferation (10 μM) in MIA PaCa-2
Procedure, shortened: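 Read-out is MTS-based viability (CellTiter 96 Aqueous One) after 2–4 days of compound exposure at 37 °C in 10% FBS with 0.3% DMSO.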

KRas wild type = KRas wild type (Homo sapiens, UniProt P01116); test: Ras GTP binding domain inhibition assay (labeled-GTP competition, cell-free); design: made in house
Procedure, shortened: (§1)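 His-tagged GTPases were coated at 10-30 μg/mL onto nickel plates overnight at 4° C, then exposed to compound (20 μM, or serial dilutions for IC50) in buffer with 1% DMSO for 3 h at room temperature, with or without 10-30 μg/mL His-Sos (556-1049) in the final hour. Cy3- or Cy5-GTP (100 nM, 45 min) binding was measured after washing.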

Rac-1 = Rac-1 (Homo sapiens, UniProt P63000); test: as above; design: made in house
Procedure, shortened: as §1

Rho-A = Rho-A (Homo sapiens, UniProt P61586); test: as above; design: made in house
Procedure, shortened: as §1

[3] = with SOS, read-out: KRas wild type + SOS: % inh.
[4] = without SOS, read-out: KRas wild type: % inh.
[5] = without SOS, read-out: Rac-1: % inh.
[6] = without SOS, read-out: Rho-A: % inh.
[7] = with SOS, read-out: Rac-1 + SOS: % inh.
[8] = with SOS, read-out: Rho-A + SOS: % inh.

IC50 ([2]; MIA PaCa-2, MIA PaCa-2) [µM]	inhibition at 20 µM (KRas wild type; [3]) [%]	inhibition at 20 µM (KRas wild type; [4]) [%]	inhibition at 20 µM (Rac-1; [5]) [%]	inhibition at 20 µM (Rho-A; [6]) [%]	inhibition at 20 µM (Rac-1; [7]) [%]	inhibition at 20 µM (Rho-A; [8]) [%]	IC50 ([2]; MIA PaCa-2, MIA-PaCa-2, 2-4 days, 10% FBS) [µM]	Compound	% inh of ERK1/2 phosphorylation in PANC-1 [1]	inhibition at 10 µM [2] [%]
5 to 10	76 to 100	51 to 75	26 to 50	51 to 75				CO[C@H]1CCCN(c2nc(-c3nccn3C)nc3sc(-c4ccn(C(C)C)n4)c(C)c23)C1 [Compound 49, (S)-6-(1-Isopropyl-1H-pyrazol-3-yl)-4-(3-methoxypiperidin-1-yl)-5-methyl-2-(1-methyl-1H-imidazol-2-yl)thieno[2,3-d]pyrimidine]	D (76-100% inhibition)	76 to 100
> 10	76 to 100	51 to 75	76 to 100	76 to 100	76 to 100	76 to 100		CO[C@H]1CC[C@@H](Nc2nc(-c3nccn3C)nc3sccc23)C1 (racemic) [Compound 10, Rac-N-((1R,3S)-3-methoxycyclopentyl)-2-(1-methyl-1H-imidazol-2-yl)thieno[2,3-d]pyrimidin-4-amine]	A (1-25% inhibition)	26 to 50
5 to 10	26 to 50	26 to 50	0	51 to 75				Cc1c(-c2ccn(C(C)C)n2)sc2nc(-c3nccn3C)nc(NCc3ncc[nH]3)c12 [Compound 57, N-((1H-Imidazol-2-yl)methyl)-6-(1-isopropyl-1H-pyrazol-3-yl)-5-methyl-2-(1-methyl-1H-imidazol-2-yl)thieno[2,3-d]pyrimidin-4-amine]	A (1-25% inhibition)	51 to 75
1 to 4.99	76 to 100	76 to 100	76 to 100	76 to 100	76 to 100	76 to 100		COCCn1ccnc1-c1nc(N[C@@H]2CC[C@H](OC)C2)c2c(-c3ccccc3)c(-c3ccn(C)n3)sc2n1 (racemic) [Compound 6, Rac-N-((1R,3S)-3-methoxycyclopentyl)-2-(1-(2-methoxyethyl)-1H-imidazol-2-yl)-6-(1-methyl-1H-pyrazol-3-yl)-5-phenylthieno[2,3-d]pyrimidin-4-amine]	D (76-100% inhibition)	76 to 100
< 1	51 to 75	51 to 75	51 to 75	76 to 100				COc1cc(Nc2nc(-c3nccn3C)nc3sc(-c4ccn(C(C)C)n4)c(C)c23)ncn1 [Compound 66, 6-(1-Isopropyl-1H-pyrazol-3-yl)-N-(6-methoxypyrimidin-4-yl)-5-methyl-2-(1-methyl-1H-imidazol-2-yl)thieno[2,3-d]pyrimidin-4-amine]	0 (0% inhibition)	76 to 100
5 to 10	51 to 75	76 to 100	51 to 75	51 to 75				COCCn1cnc(-c2nc(O)c3scc(-c4ccccn4)c3n2)c1 [Compound 78, 2-(1-(2-Methoxyethyl)-1H-imidazol-4-yl)-7-(pyridin-2-yl)thieno[3,2-d]pyrimidin-4-ol]	0 (0% inhibition)	51 to 75
1 to 4.99	76 to 100	76 to 100	76 to 100	76 to 100	76 to 100	76 to 100	0.75 to 1	COCC1CCN(c2nc(-c3nccn3C)nc3sc(-c4ccn(C(C)C)n4)c(C)c23)C1 (racemic) [Compound 38, rac-6-(1-Isopropyl-1H-pyrazol-3-yl)-4-(3-(methoxymethyl)pyrrolidin-1-yl)-5-methyl-2-(1-methyl-1H-imidazol-2-yl)thieno[2,3-d]pyrimidine]	D (76-100% inhibition)	76 to 100
5 to 10	26 to 50	26 to 50	1 to 25	26 to 50				COC1CCCN(c2nc(-c3nccn3C)nc3sc(-c4ccn(C(C)C)n4)c(-c4ccccc4)c23)C1 (racemic) [Compound 77, Rac-6-(1-isopropyl-1H-pyrazol-3-yl)-4-(3-methoxypiperidin-1-yl)-2-(1-methyl-1H-imidazol-2-yl)-5-phenylthieno[2,3-d]pyrimidine]	B (26-50% inhibition)	76 to 100
< 1	1 to 25	1 to 25	0	51 to 75				CO[C@H]1CC[C@@H](Nc2nc(-c3nccn3C)nc3sc(-c4ccn(C(C)C)n4)c(C)c23)CC1 [Compound 55]	D (76-100% inhibition)	76 to 100
5 to 10	51 to 75	26 to 50	1 to 25	76 to 100				Cc1c(-c2ccn(C(C)C)n2)sc2nc(-c3nccn3C)nc(NCCc3ncc[nH]3)c12 [Compound 53, N-(2-(1H-Imidazol-2-yl)ethyl)-6-(1-isopropyl-1H-pyrazol-3-yl)-5-methyl-2-(1-methyl-1H-imidazol-2-yl)thieno[2,3-d]pyrimidin-4-amine]	0 (0% inhibition)	76 to 100
> 10	1 to 25	0	0	1 to 25	1 to 25	1 to 25		CO[C@H]1CC[C@@H](Nc2nc(C(=O)N3CCOCC3)nc3sccc23)C1 (racemic) [Compound 12, Rac-(4-(((1R,3S)-3-methoxycyclopentyl)amino)thieno[2,3-d]pyrimidin-2-yl)(morpholino)methanone]	0 (0% inhibition)	1 to 25
1 to 4.99	76 to 100	76 to 100	76 to 100	76 to 100				Oc1nc(-c2nccn2CCOCC(F)(F)F)nc2c(-c3ccccn3)csc12 [Compound 81, 7-(Pyridin-2-yl)-2-(1-(2-(2,2,2-trifluoroethoxy)ethyl)-1H-imidazol-2-yl)thieno[3,2-d]pyrimidin-4-ol]	B (26-50% inhibition)	76 to 100
< 1	76 to 100	76 to 100	76 to 100	26 to 50	76 to 100	76 to 100		COCCCNc1nc(-c2nccn2C)nc2sc(-c3ccn(C(C)C)n3)c(C)c12 [Compound 36, 6-(1-Isopropyl-1H-pyrazol-3-yl)-N-(3-methoxypropyl)-5-methyl-2-(1-methyl-1H-imidazol-2-yl)thieno[2,3-d]pyrimidin-4-amine]	C (51-75% inhibition)	76 to 100
